Values quoted from earlier work, collected in patent publication US20100227801A1, “PHARMACEUTICAL COMPOSITIONS” (Scynexis, Inc., priority 2009, published 2010).

Legend:
HCV = settings: phase Ib clinical trial
HCV subgenomic replicon = settings: subgenomic replicon system
HCV full length replicon = settings: full length replicon system

SMILES: CC(C)OC(=O)[C@H](C)NP(=O)(OC[C@H]1O[C@@H](n2ccc(=O)[nH]c2=O)[C@](C)(F)[C@@H]1O)Oc1ccccc1 (stereo partly drawn) [PSI-7851]
- activity against HCV infected patients (HCV): demonstrated activity

SMILES: C/C=C/C[C@@H](C)[C@@H](O)[C@H]1C(=O)N[C@@H](CC)C(=O)N(C)[C@H](SCCN(C)C)C(=O)N(C)[C@@H](CC(C)(C)O)C(=O)N[C@@H](C(C)C)C(=O)N(C)[C@@H](CC(C)C)C(=O)N[C@@H](C)C(=O)N[C@H](C)C(=O)N(C)[C@@H](CC(C)C)C(=O)N(C)[C@@H](CC(C)C)C(=O)N(C)[C@@H](C(C)C)C(=O)N1C [SCY-635, 3-[(R)-2-(N,N-dimethylamino)ethylthio-Sar]-4-(gammahydroxymethylleucine)cyclosporine]
- inhibition of HCV-specific RNA replication (HCV subgenomic replicon): potent and selective inhibition
- inhibition of HCV-specific RNA replication (HCV full length replicon): potent and selective inhibition
